Assay results taken from patent US20090074757A1, “Antitumor Combination Comprising Substituted Acryloyl Distamycin Derivatives and Antibodies Inhibiting Growth Factors or Their Receptors” (priority 2005, published 2009).

System: DU145 human prostate carcinoma cells
Test: In vivo antitumor efficacy, DU145 human prostate carcinoma xenograft in athymic mice
Design: species or system Balb Nu/Nu athymic mice
Conditions: for Toxicity: evaluated on the basis of body weight reduction, animals per group of 8, bevacizumab 20 mg/kg i.p., brostallicin 0.2 mg/kg i.v.; for Time to reach 1 g / T-C (days), delay for treated vs control tumors to reach 1 g: s.c. DU145 tumors in athymic mice, bevacizumab 20 mg/kg i.p. days 6,10,13,17,20,24; for Time to reach 1 g: treatment from day 6, brostallicin 0.2 mg/kg i.v. days 6,13,20 (q7d x 3); for T-C (days), delay for treated vs control tumors to reach 1 g: brostallicin 0.2 mg/kg i.v. days 6,13,20
Description: Balb Nu/Nu, male mice, (athymic mice) from Harlan, Italy, were maintained in cages with paper filter covers, food and bedding sterilized and water acidified. 2.5×10^6 DU145 human prostate carcinoma cells (from American Type Culture Collection) were injected subcutaneously in athymic mice. […] The treatments started 6 days later when the tumors were palpable. All drugs were prepared immediately before use. Brostallicin treatments were administered intravenously in a volume of 10 ml/kg at a dose of 0.2 mg/kg and treatments were repeated weekly for 3 weeks. Bevacizumab was administered intraperitoneally in a volume of 10 ml/kg at a dose of 20 mg/kg on the days 6, 10, 13, 17, 20 and 24 from the day of cell injection. When both compounds were administered on the same day, bevacizumab was administered intraperitoneally immediately before brostallicin intravenous injection. Every 3 days the tumor growth and the net body weight were evaluated. Tumor growth was assessed by caliper. The two diameters were recorded, and the tumor weight was calculated according to the following formula: length (mm)×width^2 (mm)/2. The effect of the antitumor treatment was determined as the delay in the onset of an exponential growth of tumors [see for reference, Anti Cancer Drugs 7: 437-60, 1996]. This delay (T-C value) was defined as the difference of the time (in days) required for the treatment group (T) and the control group (C) tumors to reach a predetermined size (e.g. 1 g). Toxicity was evaluated on the basis of the body weight reduction.

Compound: C=C(Br)C(=O)Nc1cc(C(=O)Nc2cc(C(=O)Nc3cc(C(=O)Nc4cc(C(=O)NCCNC(=N)N)n(C)c4)n(C)c3)n(C)c2)n(C)c1.Cl [Brostallicin, N-(5-{[(5-{[(5-{[(2-{[amino(imino)methyl]amino}ethyl)amino]carbonyl}-1-methyl-1H-pyrrol-3-yl)amino]carbonyl}-1-methyl-1H-pyrrol-3-yl)amino]carbonyl}-1-methyl-1H-pyrrol-3-yl)-4-[(2-bromoacryloyl)amino]-1-methyl-1H-pyrrole-2-carboxamide hydrochloride]
- Toxicity: 0/8
- Time to reach 1 g: 18.4 ± 5.6 days
- T-C (days), delay for treated vs control tumors to reach 1 g: 4.6 days

Compound: Bevacizumab: monoclonal antibody directed against the vascular endothelial growth factor (VEGF), a potent neo-vascularisation inhibitor
- Toxicity: 0/8
- Time to reach 1 g: 23.4 ± 4.6 days
- T-C (days), delay for treated vs control tumors to reach 1 g: 9.6 days
